Experimental data: patent publication US20230031406A1, “COMPOUNDS AND COMPOSITIONS FOR TREATING CONDITIONS ASSOCIATED WITH NLRP ACTIVITY” (Novartis AG, priority 2018, published 2023)
Read-outs that look alike come from different tables or passages of the source.

Tested on: PMA-differentiated THP-1 cells
Assay: IL-1β production in PMA-differentiated THP-1 cells stimulated with gramicidin (hTHP-1 assay containing 2% fetal bovine serum; Procedures 1 and 2)
Type: cell-based, human
Settings: 2% fetal bovine serum
Outline: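 PMA-primed (20 ng/ml, 16-18 h) THP-1 cells in RPMI with 2% FBS, 50,000 cells/well, were preincubated 1 h with compound (0.0017-100 μM final, 0.37% DMSO), then stimulated 2 h with 5 μM gramicidin. Supernatant IL-1β measured by HTRF.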

[1] = Homo sapiens, THP-1, Table B2, numeric bounds, read-out: hTHP-1 IC50
[2] = Table B3, hTHP-1 assay, class symbols, read-out: IC50
[3] = Table B2, class symbols, read-out: hTHP-1 IC50
[4] = Homo sapiens, THP-1, Table B3, hTHP-1 assay, class symbols, read-out: IC50
[5] = Homo sapiens, THP-1, Table B1, numeric bounds, read-out: Average IC50 of compounds in hTHP-1 assay: hTHP-1 IC50
[6] = Table B1, class symbols, read-out: Average IC50 of compounds in hTHP-1 assay: hTHP-1 IC50
[7] = Homo sapiens, THP-1, Table B2, class symbols, read-out: hTHP-1 IC50
[8] = Homo sapiens, THP-1, Table B1, class symbols, read-out: Average IC50 of compounds in hTHP-1 assay: hTHP-1 IC50

Compound: CC1CCc2c1nc1c(c2NC(=O)N=S(N)(=O)c2cn(C(C)C)cn2)CCC1 (single isomer, unassigned) [Compound 660c, (S, R) or (R, S) or (S, S) or (R, R)-1-Isopropyl-N′-((3-methyl-1,2,3,5,6,7-hexahydrodicyclopenta [b,e]pyridin-8-yl)carbamoyl)-1H-imidazole-4-sulfonimidamide]
- IC50 [1]: > 30 µM

Compound: CC(=O)c1csc(S(N)(=O)=NC(=O)Nc2c3c(nc4c2CC[C@H]4C)CCC3)c1 (single isomer, unassigned) [Example 665, (R) or (S)-4-acetyl-N′-(((R)-3-methyl-1,2,3,5,6,7-hexahydrodicyclopenta[b,e]pyridin-8-yl)carbamoyl)thiophene-2-sulfonimidamide]
- IC50 [2]: 0.2 to 1 µM

Compound: CC1(C)CCc2c1nc1c(c2NC(=O)N=S(N)(=O)c2cnn3c2OCCC3)CCC1 (single isomer, unassigned) [Compound 304a, (S) or (R)-N′-((3,3-dimethyl-1,2,3,5,6,7-hexahydrodicyclopenta [b,e]pyridin-8-yl)carbamoyl)-6,7-dihydro-5H-pyrazolo[5,1-b][1,3] oxazine-3-sulfonimidamide]
- IC50 [1]: > 30 µM

Compound: CC(C)c1cnc(F)c(C(C)C)c1NC(=O)N=S(N)(=O)c1cnc(C(C)(C)O)s1 (single isomer, unassigned) [Compound 115a, (S) or (R)-N′-((2-fluoro-3,5-diisopropylpyridin-4-yl)carbamoyl)-2-(2-hydroxypropan-2-yl)thiazole-5-sulfonimidamide]
- IC50 [3]: 5 to 30 µM

Compound: Cc1nc2c(c(NC(=O)N=S(N)(=O)c3nn(C(F)F)cc3F)c1-c1ccccc1)CCC2 (stereo not drawn) [Example 620, 1-(Difluoromethyl)-4-fluoro-N′-((2-methyl-3-phenyl-6,7-dihydro-5H-cyclopenta[b]pyridin-4-yl)carbamoyl)-1H-pyrazole-3-sulfonimidamide]
- IC50 [4]: 0.2 to 1 µM

Compound: CCc1c(-c2ccccc2)nc2c(c1NC(=O)N=S(N)(=O)c1cnc(C(C)(C)O)s1)CCC2 (stereo not drawn) [Compound 144, N′-((3-ethyl-2-phenyl-6,7-dihydro-5H-cyclopenta[b]pyridin-4-yl)carbamoyl)-2-(2-hydroxypropan-2-yl)thiazole-5-sulfonimidamide]
- IC50 [5]: > 30 µM

Compound: CC(C)(O)c1cc(F)c(S(N)(=O)=NC(=O)Nc2c3c(nc4c2CCC4)CCC3)s1 (single isomer, unassigned) [Compound 105b, (S) or (R)-3-fluoro-N′-((1,2,3,5,6,7-hexahydro-dicyclopenta[b,e]pyridin-8-yl)carbamoyl)-5-(2-hydroxypropan-2-yl)thio-phene-2-sulfonimidamide]
- IC50 [6]: 1 to 5 µM

Compound: CC(C)(O)c1csc(S(N)(=O)=NC(=O)Nc2cc(CC(F)(F)F)nc3c2CCC3)c1 (stereo not drawn) [Compound 607, 4-(2-Hydroxypropan-2-yl)-N′-((2-(2,2,2-trifluoroethyl)-6,7-dihydro-5H-cyclopenta[b]pyridin-4-yl)carbamoyl)thiophene-2-sulfonimidamide]
- IC50 [7]: 1 to 5 µM

Compound: CC1CCc2c1nc1c(c2NC(=O)N=S(N)(=O)c2cc(C(C)(C)O)cs2)CCC1C (stereo not drawn) [131f^]
- IC50 [6]: 1 to 5 µM

Compound: CC(=O)c1csc(S(N)(=O)=NC(=O)Nc2c3c(nc4c2CC[C@H]4C)CCC3)c1 (stereo partly drawn) [Example 627, 4-Acetyl-N′-(((R)-3-methyl-1,2,3,5,6,7-hexahydrodicyclopenta[b,e]pyridin-8-yl)carbamoyl)thiophene-2-sulfonimidamide]
- IC50 [4]: 0.2 to 1 µM

Compound: NS(=O)(=NC(=O)Nc1c2c(nc3c1CCC31CC1)CCC2)c1nn(C(F)F)cc1F (single isomer, unassigned) [Example 681, (R) or (S)-1-(difluoromethyl)-4-fluoro-N′-((1′,5′,6′,7′-tetrahydro-2′H-spiro[cyclopropane-1,3′-dicyclopenta[b,e]pyridin]-8′-yl)carbamoyl)-1H-pyrazole-3-sulfonimidamide]
- IC50 [2]: 0.04 to 0.2 µM

Compound: Cc1cc(C(C)(C)O)sc1S(N)(=O)=NC(=O)Nc1c2c(nc3c1CCC3)CCC2 (single isomer, unassigned) [Compound 695b, (R) or (S)-N′-((1,2,3,5,6,7-hexahydrodicyclopenta [b,e]pyridin-8-yl)carbamoyl)-5-(2-hydroxypropan-2-yl)-3-methylthiophene-2-sulfonimidamide]
- IC50 [7]: 5 to 30 µM

Compound: CC(C)n1cc(Cl)c(S(N)(=O)=NC(=O)Nc2c3c(nc4c2CCC4)CCC3)n1 (single isomer, unassigned) [Compound 694a, (S) or (R)-4-Chloro-N′-((1,2,3,5,6,7-hexahydrodicyclopenta [b,e]pyridin-8-yl)carbamoyl)-1-isopropyl-1H-pyrazole-3-sulfonimidamide]
- IC50 [1]: > 30 µM

Compound: CCn1cc(F)c(S(N)(=O)=NC(=O)Nc2c3c(nc(C(F)(F)F)c2C2CC2)CCC3)n1 (stereo not drawn) [Example 744, N′-((3-cyclopropyl-2-(trifluoromethyl)-6,7-dihydro-5H-cyclopenta[b]pyridin-4-yl)carbamoyl)-1-ethyl-4-fluoro-1H-pyrazole-3-sulfonimidamide]
- IC50 (Homo sapiens, THP-1, Table B4, class symbols, read-out: hTHP-1 IC50): 0.04 to 0.2 µM

Compound: CC(O)c1csc([S@](N)(=O)=NC(=O)Nc2c3c(nc4c2CC[C@H]4C)CCC3)c1 (stereo partly drawn) [Example 582, (R)-4-(1-hydroxyethyl)-N′-(((R)-3-methyl-1,2,3,5,6,7-hexahydrodicyclopenta[b,e]pyridin-8-yl)carbamoyl)thiophene-2-sulfonimidamide]
- IC50 [4]: 0.04 to 0.2 µM

Compound: CC(C)(O)c1cc(F)c(S(N)(=O)=NC(=O)Nc2cc(CC(F)(F)F)nc3c2CCC3)s1 (single isomer, unassigned) [Example 690, (S) or (R)-3-Fluoro-5-(2-hydroxypropan-2-yl)-N′-((2-(2,2,2-trifluoroethyl)-6,7-dihydro-5H-cyclopenta[b]pyridin-4-yl)carbamoyl)thiophene-2-sulfonimidamide]
- IC50 (Homo sapiens, THP-1, Table B3, hTHP-1 assay, numeric values, read-out: IC50): > 30 µM

Compound: CCc1cc(F)c(S(N)(=O)=NC(=O)Nc2c3c(nc4c2CC[C@H]4C)CCC3)s1 (stereo partly drawn) [Compound 720c]
- IC50 [7]: 0.2 to 1 µM

Compound: NS(=O)(=NC(=O)Nc1c2c(nc(C3CC3)c1C1CC1)CCC2)c1ccn(C(F)F)n1 (stereo not drawn) [Compound 728]
- IC50 [7]: 1 to 5 µM

Compound: Cc1sc(S(N)(=O)=NC(=O)Nc2c3c(nc4c2CCC4(C)C)CCC3)cc1C(C)(C)O (single isomer, unassigned) [Compound 169a, (S) or (R)-N′-((3,3-dimethyl-1,2,3,5,6,7-hexahydro-dicyclopenta[b,e]pyridin-8-yl)carbamoyl)-4-(2-hydroxypropan-2-yl)-5-methylthiophene-2-sulfonimidamide]
- IC50 [6]: 5 to 30 µM

Compound: CCc1c(C2CC2)nc2c(c1NC(=O)N=S(N)(=O)c1cc(C(C)(C)O)cs1)CCC2 (stereo not drawn) [Compound 181, N′-((2-cyclopropyl-3-ethyl-6,7-dihydro-5H-cyclopenta[b]pyridin-4-yl)carbamoyl)-4-(2-hydroxypropan-2-yl)thiophene-2-sulfonimidamide]
- IC50 [8]: 0.2 to 1 µM

Compound: CN(C)Cc1ccc(S(N)(=O)=NC(=O)Nc2c3c(nc4c2CCC4(C)C)CCC3)cc1 (stereo not drawn) [Compound 125, N′-((3,3-dimethyl-1,2,3,5,6,7-hexahydrodicyclopenta[b,e]pyridin-8-yl)carbamoyl)-4-((dimethylamino)methyl)benzenesulfonimidamide]
- IC50 [8]: 1 to 5 µM

Compound: CC(C)c1csc(S(N)(=O)=NC(=O)Nc2c3c(nc4c2CCC4)CCC3)c1 (single isomer, unassigned) [Compound 173b, (S) or (R)-N′-((1,2,3,5,6,7-hexahydrodicyclo-penta[b,e]pyridin-8-yl)carbamoyl)-4-isopropylthiophene-2-sulfonimidamide]
- IC50 [5]: > 20 µM

Compound: CC(C)n1nc(S(N)(=O)=NC(=O)Nc2c3c(nc4c2CCC4(C)C)CCC3)cc1CO (single isomer, unassigned) [Compound 652b]
- IC50 [1]: > 30 µM

Compound: CCc1c(C2CC2)nc2c(c1NC(=O)N=S(N)(=O)c1cc(C(C)(C)O)cs1)CCC2 (single isomer, unassigned) [Compound 181b, (R) or (S)-N′((2-cyclopropyl-3-ethyl-6,7-dihydro-5H-cyclopenta[b]pyridin-4-yl)carbamoyl)-4-(2-hydroxypropan-2-yl)thiophene-2-sulfonimidamide]
- IC50 [3]: 0.04 to 0.2 µM

Compound: CC(C)(O)c1cc(S(N)(=O)=NC(=O)Nc2c3c(nc4c2CCC4)CCC3)nn1-c1ccccc1 (stereo not drawn) [Compound 159, N-((1,2,3,5,6,7-hexahydrodicyclopenta[b,e]pyridin-8-yl)carbamoyl)-5-(2-hydroxypropan-2-yl)-1-phenyl-1H-pyrazole-3-sulfonimidamide]
- IC50 [8]: 1 to 5 µM

Compound: Cc1c(C2CC2)nc2c(c1NC(=O)N=S(N)(=O)c1cnn3c1OCCC3)CCC2 (single isomer, unassigned) [Compound 306a, (S) or (R)-N′-((2-cyclopropyl-3-methyl-6,7-dihydro-5H-cyclopenta[b]pyridin-4-yl)carbamoyl)-6,7-dihydro-5H-pyrazolo[5,1-b] [1,3]oxazine-3-sulfonimidamide]
- IC50 [3]: 5 to 30 µM

Compound: CC(C)(O)c1sc(S(N)(=O)=NC(=O)Nc2c3c(nc4c2CCC42CC2)CCC3)cc1F (single isomer, unassigned) [Compound 614b, (S) or (R)-4-Fluoro-5-(2-hydroxypropan-2-yl)-N′-((1′,5′,6′,7′-tetrahydro-2′H-spiro[cyclopropane-1,3′-dicyclopenta[b,e]pyridin]-8′-yl)carbamoyl) thiophene-2-sulfonimidamide]
- IC50 [3]: 1 to 5 µM
